In article PMC10525927, “First Generation of Antioxidant Precursors for Bioisosteric Se-NSAIDs: Design, Synthesis, and In Vitro and In Vivo Anticancer Evaluation” (Antioxidants, 2023):
Where two headings read alike, the source gives them in different places.

Tests used:
[1] = tested on: HT-29 colon cancer cells; design: method as in PMID 26750401, PMID 32987314, PMID 33799070, PMID 36257283; settings: MTT; parent NSAIDs for reference, some values obtained from the literature; cited from earlier work
[2] = tested on: HCT-116 colon cancer cells; design: method as in PMID 26750401, PMID 32987314, PMID 33799070, PMID 36257283; settings: MTT; parent NSAIDs for reference, some values obtained from the literature; cited from earlier work
[3] = tested on: DU-145 prostate cancer cells; design: method as in PMID 26750401, PMID 32987314, PMID 33799070, PMID 36257283; settings: MTT; parent NSAIDs for reference, some values obtained from the literature; cited from earlier work
[4] = tested on: PC-3 prostate cancer cells; design: method as in PMID 26750401, PMID 32987314, PMID 33799070, PMID 36257283; settings: MTT; parent NSAIDs for reference, some values obtained from the literature; cited from earlier work
[5] = tested on: MDA-MB-231 breast cancer cells; design: method as in PMID 26750401, PMID 32987314, PMID 33799070, PMID 36257283; settings: MTT; parent NSAIDs for reference, some values obtained from the literature; cited from earlier work
[6] = tested on: T-47D breast cancer cells; design: method as in PMID 26750401, PMID 32987314, PMID 33799070, PMID 36257283; settings: MTT; parent NSAIDs for reference, some values obtained from the literature; cited from earlier work
[7] = tested on: H1299 lung cancer cells; design: method as in PMID 26750401, PMID 32987314, PMID 33799070, PMID 36257283; settings: MTT; parent NSAIDs for reference, some values obtained from the literature; cited from earlier work
[8] = tested on: A549 lung cancer cells; design: method as in PMID 26750401, PMID 32987314, PMID 33799070, PMID 36257283; settings: MTT; parent NSAIDs for reference, some values obtained from the literature; cited from earlier work
[9] = tested on: HT-29 colon cancer cells; assay: MTT cell viability assay, HT-29; assay type: cell-based; settings: Homo sapiens, HT-29, 48 h, mean ± SD
Protocol: (§1) The cell lines were purchased from the American Type Culture Collection (ATCC). The cancer cell lines DU-145, PC-3, T-47D, MDA-MB-231, H1299, and A549, and the non-tumorigenic cells (184B5 and BEAS-2B), were maintained in RPMI 1640 medium (Gibco, Alcobendas, Madrid, Spain) supplemented with 10% fetal bovine serum (FBS; Gibco) and 1% antibiotics (10.00 units/mL penicillin and 10.00 mg/mL streptomycin; Gibco). Colon cancer cells HT-29 and HCT-116 were cultured in McCoy’s 5A medium (Gibco) supplemented with 10% fetal bovine serum (FBS; Gibco) and 1% antibiotics (10.00 units/mL penicillin and 10.00 mg/mL streptomycin; Gibco). Cells were maintained in tissue culture flasks at 37 °C and 5% CO2. The culture medium was replaced every three days.
(§2) The antiproliferative activity and selectivity in vitro of the Se-NSAID derivatives were determined by the (3-(4,5-dimethylthiazol-2-yl)-2,5-diphenyltetrazolium bromide) (MTT) assay. Compounds were dissolved in DMSO at a concentration of 0.01 M and serial dilutions were prepared. The Se-NSAID derivatives were tested at seven concentrations ranging between 1 and 100 µM in the colon (HT-29 and HCT-116), prostate (DU-145 and PC-3), breast (MDA-MB-231 and T-47D), and lung (H1299 and A549) cancer cell lines. The non-tumorigenic breast (184B5) and lung (BEAS-2B) cell lines were also tested to assess the selectivity of the compounds following the same procedure. A total of 1 × 10^4 cells were seeded per well in 96-well plates and incubated at 5% CO2 and 37 °C for 24 h. Then, cells were treated with either DMSO or increasing concentrations of the corresponding Se-NSAID derivatives for 48 h. A volume of 20 µL of MTT (5 mg/mL) was added to each well 2.5 h before the termination point. At the end of the experiment, the medium was removed, and the resultant formazan crystals formed by mitochondrial reduction of MTT were dissolved in 50 µL of DMSO. Absorbance was measured at 550 nm. IC50, GI50, TGI, and LC50 values were calculated using OriginPro version 8.5.1. software by nonlinear curve fitting. Selectivity indexes (SI) were calculated as the ratio of the IC50 values determined for the nonmalignant and the tumoral cells in the breast (IC50 (184B5)/IC50 (MDA-MB-231) and IC50 (184B5)/IC50 (T-47D)) and lung (IC50 (BEAS-2B)/IC50 (H1299) and IC50 (BEAS-2B)/IC50 (A549)) cell lines. Data were obtained from at least three independent experiments performed in triplicates.

[10] = tested on: HCT-116 colon cancer cells; assay: MTT cell viability assay, HCT-116; assay type: cell-based; settings: mean ± SD
Protocol: as §1, §2

[11] = tested on: DU-145 prostate cancer cells; assay: MTT cell viability assay, DU-145; assay type: cell-based; settings: Homo sapiens, DU-145, 48 h, mean ± SD
Protocol: as §1, §2

[12] = tested on: PC-3 prostate cancer cells; assay: MTT cell viability assay, PC-3; assay type: cell-based; settings: 48 h, mean ± SD
Protocol: as §1, §2

[13] = tested on: MDA-MB-231 breast cancer cells; assay: MTT cell viability assay, MDA-MB-231; assay type: cell-based; settings: Homo sapiens, MDA-MB-231, 48 h, mean ± SD
Protocol: as §1, §2

[14] = tested on: T-47D breast cancer cells; assay: MTT cell viability assay, T-47D; assay type: cell-based; settings: 48 h, mean ± SD
Protocol: as §1, §2

[15] = tested on: H1299 lung cancer cells; assay: MTT cell viability assay, H1299; assay type: cell-based; settings: Homo sapiens, NCI-H1299, 48 h, mean ± SD
Protocol: as §1, §2

[16] = tested on: A549 lung cancer cells; assay: MTT cell viability assay, A549; assay type: cell-based; settings: Homo sapiens, A549, 48 h, mean ± SD
Protocol: as §1, §2

[17] = tested on: 184B5 non-tumorigenic breast (mammary gland) cells; assay: MTT cell viability assay, 184B5; assay type: cell-based; settings: mean ± SD
Protocol: as §1, §2

[18] = tested on: BEAS-2B non-tumorigenic lung (bronchial epithelium) cells; assay: MTT cell viability assay, BEAS-2B; assay type: cell-based; settings: 48 h, mean ± SD
Protocol: as §1, §2

[19] = tested on: panel of eight cancer cell lines; assay: MTT cell viability assay, statements on the whole panel; assay type: cell-based; settings: 48 h, result in words
Protocol: as §1, §2

COc1ccc2c(c1)c(CC(=O)O)c(C)n2C(=O)c1ccc(Cl)cc1 [Ind, indomethacin]
IC50 [1]: > 50 µM
IC50 [2]: > 50 µM
IC50 [3]: > 50 µM
IC50 [4]: > 50 µM
IC50 [5]: > 50 µM
IC50 [6]: > 50 µM
IC50 [7]: > 50 µM
IC50 [8]: > 50 µM

COc1ccc2c(c1)c(CC(=O)[Se][Se]C(=O)Cc1c(C)n(C(=O)c3ccc(Cl)cc3)c3ccc(OC)cc13)c(C)n2C(=O)c1ccc(Cl)cc1 [Compound 2, 2-(1-(4-Chlorobenzoyl)-5-methoxy-2-methyl-1H-indol-3-yl)acetic diselenoperoxyanhydride]
IC50 [9]: > 50 µM
GI50 ([9]; Table S1): > 100 µM
IC50 ([10]; Homo sapiens, HCT-116, 48 h): > 50 µM
GI50 ([10]; Homo sapiens, HCT-116, 48 h, Table S1): 44.5 ± 3.4 µM
TGI HCT-116 ([10]; in vitro TGI concentration, 48 h, Table S1): 81.5 ± 2.3 µM
IC50 [11]: > 50 µM
GI50 ([11]; Table S1): 58.4 ± 8.4 µM
IC50 [12]: > 50 µM
GI50 ([12]; Table S1): > 100 µM
IC50 [13]: > 50 µM
GI50 ([13]; Table S1): 23.1 ± 14.3 µM
IC50 ([14]; Homo sapiens, T47D): > 50 µM
GI50 ([14]; Homo sapiens, T47D, Table S1): 25.5 ± 10.2 µM
TGI T-47D ([14]; in vitro TGI concentration, Table S1): 39.0 ± 8.5 µM
IC50 [15]: > 50 µM
GI50 ([15]; Table S1): 53.2 ± 1.2 µM
IC50 [16]: > 50 µM
GI50 ([16]; Table S1): > 100 µM
IC50 184B5 ([17]; 48 h, nonmalignant breast cells): completely inactive
GI50 ([17]; Homo sapiens, 184B5, 48 h, Table S1): > 100 µM
IC50 ([17]; Homo sapiens, 184B5, 48 h, nonmalignant breast cells): > 100 µM
IC50 BEAS-2B ([18]; nonmalignant lung cells): completely inactive
GI50 ([18]; Homo sapiens, BEAS-2B, Table S1): > 100 µM
IC50 ([18]; Homo sapiens, BEAS-2B, nonmalignant lung cells): > 100 µM
antiproliferative activity against all the eight cell lines [19]: no activity
